Like-named read-outs stand apart in the source and are kept apart here.
Columns and labels:
Hs578T [1] = assay: Cell vitality assay (ATP assay, CellTiter-Glo); assay type: cell-based; settings: Homo sapiens, Hs-578T; HS578T cell line, 72 h; Table Ib; read-out: IC50 ATP-Assay HS578T after 72 h
Outline: (§1)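 Steps: seed 1000 cells per well; add compound (0.195–12.5 μM, 7 points) or DMSO; incubate 72 h; equilibrate to room temperature ~30 min; add reagent, shake 2 min, stand 10 min; read luminescence. IC50 relative to DMSO-control ATP.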

indicated cell line = assay: Wound healing migration assay (Table IV); assay type: cell-based; settings: compounds at 12.5, 6.25, 3.125 μM, 48 h-72 h
Outline: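 Cells seeded at 150000/24 well, grown to monolayer overnight, scratched with a pipette tip, then treated with compound at 12.5, 6.25 or 3.125 μM versus DMSO. Stopped by crystal violet fixation at 48-72 h once control wounds closed; IC50 taken as 50% wound size between t0 and t48 or t72.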

Hs578T [2] = assay: Matrigel outgrowth assay/branching assay; assay type: cell-based; settings: Homo sapiens, Hs-578T; HS578T cell line; Table Ib; read-out: Total branching inhibition in Matrigel HS578T
Outline: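 Read-out: microscopic images of invasive branching structures at 48 h, 72 h and 96 h. Cells sat on a 3 mg/ml Matrigel layer (set 1 h, 37° C) with compound at 3.125, 1.56 and 0.78 μM or DMSO. A concentration counts as positive only with complete branching inhibition.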

SF126 = assay: Cell vitality assay (ATP assay, CellTiter-Glo); assay type: cell-based; settings: Homo sapiens, SF-126; SF126, 72 h; Table IIa; read-out: IC50 ATP-Assay after 72 h SF126
Outline: as §1

A172 = assay: Cell vitality assay (ATP assay, CellTiter-Glo); assay type: cell-based; settings: Homo sapiens, A 172; A172, 72 h; Table IIa; read-out: IC50 ATP-Assay after 72 h A172
Outline: as §1

U118 = assay: Cell vitality assay (ATP assay, CellTiter-Glo); assay type: cell-based; settings: U118, 72 h; Table IIa; read-out: IC50 ATP-Assay after 72 h U118
Outline: as §1

[3] = Homo sapiens, C8161 cells, read-out: IC50 Wound healing Assay C8161
[4] = SF763 cells, read-out: IC50 Wound healing Assay SF763
[5] = Homo sapiens, A 172, A172 cells, read-out: IC50 Wound healing Assay A172
[6] = Homo sapiens, SF-126, SF126 cells, read-out: IC50 Wound healing Assay SF126
[7] = U118 cells, read-out: IC50 Wound healing Assay U118

Row | melting point [°C] | IC50 (indicated cell line; [3]) [µM] | IC50 (indicated cell line; [4]) [µM] | IC50 (indicated cell line; [5]) [µM] | IC50 (indicated cell line; [6]) [µM] | IC50 (indicated cell line; [7]) [µM] | SMILES | IC50 (Hs578T [1]) [µM] | IC50 (Hs578T [2]) [µM] | IC50 (SF126) [µM] | IC50 (A172) [µM] | IC50 (U118) [µM]
1 | 173 to 175 | ≤ 12.5 | 12.5 to 50 |  |  |  | COc1cc2c(Oc3ccc(NS(=O)(=O)c4cc(Cl)cc(Cl)c4OC)cc3F)ccnc2cc1OCCCN1CCCCC1 [Example 34, 3,5-Dichloro-N-{3-fluoro-4-[6-methoxy-7-(3-piperidin-1-yl-propoxy)-quinolin-4-yloxy]-phenyl}-2-methoxy-benzenesulfonamide] | ≤ 12.5 | ≤ 10 |  |  | 
2 | 94 to 96 |  |  | ≤ 12.5 | ≤ 12.5 | 12.5 to 50 | COc1cc2c(Oc3ccc(NS(=O)(=O)c4ccccc4OC(F)(F)F)cc3F)ccnc2cc1OCCCN(C)C [Example 179, N-{4-[7-(3-Dimethylamino-propoxy)-6-methoxy-quinolin-4-yloxy]-3-fluoro-phenyl}-2-trifluoromethoxy-benzenesulfonamide] | ≤ 12.5 | 10 to 25 | ≤ 12.5 | ≤ 12.5 | ≤ 12.5
3 | 138 to 139 |  |  | ≤ 12.5 | ≤ 12.5 | ≤ 12.5 | COC(=O)c1sccc1S(=O)(=O)Nc1ccc(Oc2ccnc3cc(OCCCN4CCCCC4)c(OC)cc23)c(F)c1 [Example 155, 3-{3-Fluoro-4-[6-methoxy-7-(3-piperidin-1-yl-propoxy)-quinolin-4-yloxy]-phenylsulfamoyl}-thiophene-2-carboxylic acid methyl ester] | ≤ 12.5 | 10 to 25 | ≤ 12.5 | ≤ 12.5 | ≤ 12.5
4 | 118 to 121 |  |  | ≤ 12.5 | ≤ 12.5 | ≤ 12.5 | COc1cc2c(Oc3ccc(NS(=O)(=O)c4cc(F)ccc4F)cc3Cl)ccnc2cc1OCCCN1CCN(C)CC1 [Example 112, N-(3-Chloro-4-{6-methoxy-7-[3-(4-methyl-piperazin-1-yl)-propoxy]-quinolin-4-yloxy}-phenyl)-2,5-difluoro-benzenesulfonamide] | ≤ 12.5 | ≤ 10 | ≤ 12.5 | ≤ 12.5 | ≤ 12.5
5 | 136 to 138 |  |  | ≤ 12.5 | ≤ 12.5 | ≤ 12.5 | COc1cc2c(Oc3ccc(NS(=O)(=O)c4ccccc4[N+](=O)[O-])cc3F)ccnc2cc1OCCCN1CCCC(C)C1 (stereo not shown) [Example 40, N-(3-Fluoro-4-{6-methoxy-7-[3-(3-methyl-piperidin-1-yl)-propoxy]-quinolin-4-yloxy}-phenyl)-2-nitro-benzenesulfonamide] | ≤ 12.5 | ≤ 10 | ≤ 12.5 | ≤ 12.5 | 12.5 to 50
6 | 155 to 156 | 12.5 to 50 | ≤ 12.5 |  |  |  | COc1cc2c(Oc3cccc(NS(=O)(=O)c4ccccc4C(F)(F)F)c3)ccnc2cc1OCCCN1CCN(C)CC1 [Example 102, N-(3-{6-Methoxy-7-[3-(4-methyl-piperazin-1-yl)-propoxy]-quinolin-4-yloxy}-phenyl)-2-trifluoromethyl-benzenesulfonamide] | ≤ 12.5 | 10 to 25 |  |  | 
7 | 146 to 148 |  |  | ≤ 12.5 | ≤ 12.5 | ≤ 12.5 | COC(=O)c1sccc1S(=O)(=O)Nc1ccc(Oc2ccnc3cc(OCCCN4CCN(C)CC4)c(OC)cc23)c(F)c1 [Example 158, 3-(3-Fluoro-4-{6-methoxy-7-[3-(4-methyl-piperazin-1-yl)-propoxy]-quinolin-4-yloxy}-phenylsulfamoyl)-thiophene-2-carboxylic acid methyl ester] | ≤ 12.5 | 10 to 25 | ≤ 12.5 | ≤ 12.5 | ≤ 12.5
8 | 167 to 168 |  |  | ≤ 12.5 | ≤ 12.5 | ≤ 12.5 | COC(=O)c1sccc1S(=O)(=O)Nc1ccc(Oc2ccnc3cc(OCCCN4CCOCC4)c(OC)cc23)c(F)c1 [Example 157, 3-{3-Fluoro-4-[6-methoxy-7-(3-morpholin-4-yl-propoxy)-quinolin-4-yloxy]-phenylsulfamoyl}-thiophene-2-carboxylic acid methyl ester] | ≤ 12.5 | 10 to 25 | ≤ 12.5 | ≤ 12.5 | ≤ 12.5
9 | 168 to 169 | ≤ 12.5 | 12.5 to 50 |  |  |  | COc1cc2c(Oc3ccc(NS(=O)(=O)c4ccccc4F)cc3F)ccnc2cc1OCCN1CCOCC1 [Example 81, 2-Fluoro-N-{3-fluoro-4-[6-methoxy-7-(2-morpholin-4-yl-ethoxy)-quinolin-4-yloxy]-phenyl}-benzenesulfonamide] | ≤ 12.5 | ≤ 10 |  |  | 
10 | 139 to 141 |  |  | ≤ 12.5 | ≤ 12.5 | ≤ 12.5 | COC(=O)c1sccc1S(=O)(=O)Nc1ccc(Oc2ccnc3cc(OCCCN4CCC(C)CC4)c(OC)cc23)c(F)c1 [Example 156, 3-(3-Fluoro-4-{6-methoxy-7-[3-(4-methyl-piperidin-1-yl)-propoxy]-quinolin-4-yloxy}-phenylsulfamoyl)-thiophene-2-carboxylic acid methyl ester] | ≤ 12.5 | 10 to 25 | ≤ 12.5 | ≤ 12.5 | ≤ 12.5
11 | 128 to 130 |  |  | ≤ 12.5 | ≤ 12.5 | ≤ 12.5 | COc1cc2c(Oc3ccc(NS(=O)(=O)c4ccccc4OC(F)(F)F)cc3F)ccnc2cc1OCCCN1CCCC(C)C1 (stereo not shown) [Example 45, N-(3-Fluoro-4-{6-methoxy-7-[3-(3-methyl-piperidin-1-yl)-propoxy]-quinolin-4-yloxy}-phenyl)-2-trifluoromethoxy-benzenesulfonamide] | ≤ 12.5 | ≤ 10 | ≤ 12.5 | ≤ 12.5 | ≤ 12.5
12 | 131 to 133 | 12.5 to 50 | ≤ 12.5 |  |  |  | COc1cc2c(Oc3ccc(NS(=O)(=O)c4cccc5ccccc45)cc3F)ccnc2cc1OCCCN1CCCC(C)C1 (stereo not shown) [Example 58, Naphthalene-1-sulfonic acid (3-fluoro-4-{6-methoxy-7-[3-(3-methyl-piperidin-1-yl)-propoxy]-quinolin-4-yloxy}-phenyl)-amide] | ≤ 12.5 | ≤ 10 |  |  | 
13 | 182 to 183 | ≤ 12.5 | ≤ 12.5 |  |  |  | COc1cc2c(Oc3ccc(NS(=O)(=O)c4c(F)cccc4F)cc3F)ccnc2cc1OCCN1CCOCC1 [Example 82, 2,6-Difluoro-N-{3-fluoro-4-[6-methoxy-7-(2-morpholin-4-yl-ethoxy)-quinolin-4-yloxy]-phenyl}-benzenesulfonamide] | ≤ 12.5 | ≤ 10 |  |  | 
14 |  |  |  | ≤ 12.5 | ≤ 12.5 | ≤ 12.5 | COc1cc2c(Oc3ccc(NS(=O)(=O)c4c(F)cccc4F)cc3F)ccnc2cc1OCCCN1CCN(C)CC1 [Example 110, 2,6-Difluoro-N-(3-fluoro-4-{6-methoxy-7-[3-(4-methyl-piperazin-1-yl)-propoxy]-quinolin-4-yloxy}-phenyl)-benzenesulfonamide] | ≤ 12.5 | ≤ 10 | ≤ 12.5 | ≤ 12.5 | ≤ 12.5
15 | 124 to 126 | ≤ 12.5 | 12.5 to 50 |  |  |  | COc1cc2c(Oc3ccc(NS(=O)(=O)c4ccc(F)c(Cl)c4)cc3F)ccnc2cc1OCCCN1CCCC(C)C1 (stereo not shown) [Example 57, 3-Chloro-4-fluoro-N-(3-fluoro-4-{6-methoxy-7-[3-(3-methyl-piperidin-1-yl)-propoxy]-quinolin-4-yloxy}-phenyl)-benzenesulfonamide] | ≤ 12.5 | ≤ 10 |  |  | 
16 | 183 to 185 | ≤ 12.5 | ≤ 12.5 |  |  |  | COc1cc2c(Oc3ccc(NS(=O)(=O)c4cc(Cl)cc(Cl)c4OC)cc3F)ccnc2cc1OCCCN1CCN(C)CC1 [Example 35, 3,5-Dichloro-N-(3-fluoro-4-{6-methoxy-7-[3-(4-methyl-piperazin-1-yl)-propoxy]-quinolin-4-yloxy}-phenyl)-2-methoxy-benzenesulfonamide] | ≤ 12.5 | ≤ 10 |  |  | 

Source: patent publication US9169241B2, “Quinolinyloxyphenylsulfonamides” (Max-Planck-Gesellschaft Zur Forderung der Wissenschaften …, priority 2009, dated 2015)
